Experimental data from patent publication US11051515B2, “3-acyl-benzamides and their use as herbicides” (Bayer Aktiengesellschaft, priority 2017, dated 2021).

What was measured:
[1] = tested on: VIOTR; test: Post-emergence action against VIOTR; type: in vivo, Viola tricolor; details: Viola tricolor, 504 h; post-emergence, dosage 80 g/ha
Procedure, shortened: (§1)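 Post-emergence foliar spray on greenhouse plants at the one-leaf stage, using wettable-powder or emulsion-concentrate formulations in water (600 to […], plus 0.2% wetting agent). Damage scored by eye roughly 3 weeks later against untreated plants: 0% = like control, 100% = dead.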

[2] = tested on: HORMU; test: Pre-emergence action against HORMU; type: in vivo, Hordeum murinum; details: Hordeum murinum, 504 h, Dosage 320 g/ha
Procedure, shortened: (§2)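 Seeds sown in sandy loam in wood-fiber pots and covered with soil. Greenhouse growth; visual damage scored after 3 weeks versus untreated controls (100% = dead, 0% = like control).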

[3] = tested on: MATIN; test: Pre-emergence action against MATIN; type: in vivo, Matricaria inodora; details: Tripleurospermum inodorum, 504 h; Dosage 320 g/ha, pre-emergence
Procedure, shortened: as §2

[4] = tested on: LOLRI; test: Pre-emergence action against LOLRI; type: in vivo, Lolium rigidum; details: Lolium rigidum, 504 h, dosage 320 g/ha, scored visually after 3 weeks vs untreated controls, read-out: Pre-emergence action against LOLRI (herbicidal activity)
Procedure, shortened: as §2

[5] = tested on: PHBPU; test: Post-emergence action against PHBPU; type: in vivo, Pharbitis purpurea; details: Ipomoea purpurea, 504 h; post-emergence, dosage 80 g/ha
Procedure, shortened: as §1

[6] = tested on: LOLRI; test: Post-emergence action against LOLRI; type: in vivo, Lolium rigidum; details: Lolium rigidum, 504 h, dosage 80 g/ha, visual assessment about 3 weeks after treatment vs untreated controls, read-out: Post-emergence action against LOLRI (herbicidal action in percent)
Procedure, shortened: as §1

[7] = tested on: ECHCG; test: Post-emergence action against ECHCG; type: in vivo, Echinochloa crus-galli; details: Echinochloa crus-galli, 504 h; post-emergence, dosage 80 g/ha, visual assessment about 3 weeks after treatment vs untreated controls; read-out: Post-emergence action against ECHCG (herbicidal action in percent)
Procedure, shortened: as §1

[8] = tested on: CYPES; test: Post-emergence action against CYPES; type: in vivo, Cyperus esculentus; details: Cyperus esculentus, 504 h; post-emergence, dosage 80 g/ha, visual assessment about 3 weeks after treatment vs untreated controls; read-out: Post-emergence action against CYPES (herbicidal action in percent)
Procedure, shortened: as §1

[9] = tested on: ABUTH; test: Pre-emergence action against ABUTH; type: in vivo, Abutilon theophrasti; details: Abutilon theophrasti, 504 h; pre-emergence, dosage 320 g/ha, scored visually after 3 weeks vs untreated controls; read-out: Pre-emergence action against ABUTH (herbicidal activity)
Procedure, shortened: as §2

[10] = tested on: HORMU; test: Post-emergence action against HORMU; type: in vivo, Hordeum murinum; details: dosage 80 g/ha
Procedure, shortened: as §1

[11] = tested on: MATIN; test: Post-emergence action against MATIN; type: in vivo, Matricaria inodora; details: Tripleurospermum inodorum, 504 h; post-emergence, dosage 80 g/ha, visual assessment about 3 weeks after treatment vs untreated controls; read-out: Post-emergence action against MATIN (herbicidal action in percent)
Procedure, shortened: as §1

[12] = tested on: DIGSA; test: Pre-emergence action against DIGSA; type: in vivo, Digitaria sanguinalis; details: dosage 320 g/ha, scored visually after 3 weeks vs untreated controls
Procedure, shortened: as §2

[13] = tested on: DIGSA; test: Post-emergence action against DIGSA; type: in vivo, Digitaria sanguinalis; details: dosage 80 g/ha, visual assessment about 3 weeks after treatment vs untreated controls
Procedure, shortened: as §1

CSc1c(C(=O)Nc2nnnn2C)ccc(C(F)F)c1C(=O)C1CC1 [1-67]
pest or weed control at 80 g/ha [1]: 100% | pest or weed control at 320 g/ha [2]: 80% | pest or weed control at 320 g/ha [3]: 100% | pest or weed control at 320 g/ha [4]: 100% | pest or weed control at 80 g/ha [5]: 80% | pest or weed control at 80 g/ha [6]: 100% | pest or weed control at 80 g/ha [7]: 100% | pest or weed control at 80 g/ha [8]: 90% | pest or weed control at 320 g/ha [9]: 100% | Post-emergence action against HORMU [10]: 100 | pest or weed control at 80 g/ha [11]: 100%

Cn1nnnc1NC(=O)c1ccc(C(F)F)c(C(=O)C2CC2)c1Cl [1-168]
pest or weed control at 80 g/ha [1]: 100% | pest or weed control at 320 g/ha [2]: 100% | pest or weed control at 320 g/ha [3]: 100% | pest or weed control at 320 g/ha [4]: 100% | pest or weed control at 80 g/ha [5]: 100% | pest or weed control at 80 g/ha [6]: 100% | pest or weed control at 80 g/ha [7]: 100% | pest or weed control at 80 g/ha [8]: 100% | pest or weed control at 320 g/ha [9]: 100% | Post-emergence action against HORMU [10]: 100 | pest or weed control at 80 g/ha [11]: 100%

CC(=O)c1c(I)ccc(C(=O)Nc2nnnn2C)c1Cl [1-192]
pest or weed control at 80 g/ha [1]: 100% | pest or weed control at 320 g/ha [2]: 100% | pest or weed control at 320 g/ha [3]: 100% | pest or weed control at 320 g/ha [4]: 100% | pest or weed control at 80 g/ha [5]: 80% | pest or weed control at 80 g/ha [6]: 100% | pest or weed control at 80 g/ha [7]: 100% | pest or weed control at 80 g/ha [8]: 80% | pest or weed control at 320 g/ha [9]: 100% | Post-emergence action against HORMU [10]: 100 | pest or weed control at 80 g/ha [11]: 100%

Cn1nnnc1NC(=O)c1ccc(C(F)(F)F)c(C(=O)C2CC2)c1C1CC1 [1-233]
pest or weed control at 80 g/ha [1]: 90% | pest or weed control at 320 g/ha [2]: 100% | pest or weed control at 320 g/ha [3]: 100% | pest or weed control at 320 g/ha [4]: 100% | pest or weed control at 80 g/ha [5]: 100% | Pre-emergence action against DIGSA (herbicidal activity) [12]: 100% | pest or weed control at 80 g/ha [6]: 90% | Post-emergence action against DIGSA (herbicidal action in percent) [13]: 100% | pest or weed control at 80 g/ha [7]: 100% | pest or weed control at 320 g/ha [9]: 100% | Post-emergence action against HORMU [10]: 80 | pest or weed control at 80 g/ha [11]: 90%
